Reference: the NIST ThermoML archive (doi:10.1021/je5007218)
± gives the expanded uncertainty stated by the source.

Assay: refractive index (Na D-line) (dimensionless)
Conditions: 293.15 K; 101.33 kPa; Liquid; Standard Abbe refractometry

SMILES	refractive index
CC(C)CO [2-methyl-1-propanol]	1.39563 ± 0.0004
CC#N [acetonitrile]	1.34386 ± 0.00035
CCCCO [butan-1-ol]	1.39928 ± 0.0004
O [water]	1.33299 ± 0.00035
